Assay results published in patent US20260021147A1, “COMPOSITIONS AND METHODS FOR TREATING INFLAMMATORY DISEASE” (The Regents of the University of Michigan, priority 2022, published 2026).
“Also recorded” adds a separate entry of the source.

How the values were obtained:
intestinal microbiota [1] = assay: Fecal microbiome of 44 allo-HSCT patients, pre-HSCT versus day 14; format: in vivo, human; details: pre-HSCT vs day 14, paired analysis
Method: Fecal samples which were collected from patients and mice and colonic mucosal samples, which were collected from mice were weighed before DNA isolation. In brief, genomic DNA was isolated using the QIAamp DNA mini kit (51306, Qiagen) according to the manufacturer's protocol that was modified to include an intensive bead-beating lysis step. The V4 region of 16S rRNA gene was amplified by PCR from 100 ng of each of extracted and purified genomic DNA using 515 forward and 806 reverse primer pairs (Caporaso et al., 2012). The quality and quantity of the barcoded amplicons were assessed on an Agilent 4200 TapeStation system (Agilent) and Qubit Fluorometer (Thermo Fisher Scientific), and libraries were prepared after pooling at equimolar ratios. […]
Sequencing data from paired-end reads were de-multiplexed using QIIME 2 (Caporaso et al., 2010). Merging of paired-end reads, dereplicating, and length filtering was performed using VSEARCH 2.17.1 (Rognes et al., 2016). […] Weighted UniFrac distances (Lozupone et al., 2011) were determined using QIIME 2, visualized using principal coordinate analysis, and evaluated for statistical significance using permutational multivariate analysis of variance (PERMANOVA) testing. […] Paired samples were analyzed using the Wilcoxon signed rank test with adjustment for multiple comparisons.

[2] = Short chain fatty acids profiling of mouse feces by IC-MS; format: in vivo, mice; details: meropenem-treated allo-HSCT mice, day 18
Method: To determine the relative abundance of short chain fatty acids in mouse feces samples, extracts were prepared and analyzed by ultra-high resolution mass spectrometry (HRMS). Fecal pellets were homogenized with a Precellys Tissue Homogenizer. Metabolites were extracted using 1 mL ice-cold 0.1% Ammonium hydroxide in 80/20 (v/v) methanol/water. Extracts were centrifuged at 17,000 g for 5 min at 4° C., and supernatants were transferred to clean tubes, followed by evaporation to dryness under nitrogen. Dried extracts were reconstituted in deionized water, and 5 μL was injected for analysis by IC-MS. IC mobile phase A (MPA; weak) was water, and mobile phase B (MPB; strong) was water containing 100 mM KOH. A Thermo Scientific Dionex ICS-5000+ system included a Thermo IonPac AS11 column (4 μm particle size, 250×2 mm) with column compartment kept at 30° C. The autosampler tray was chilled to 4° C. The mobile phase flow rate was 360 μL/min, and the gradient elution program was: 0-5 min, 1% MPB; 5-25 min, 1-35% MPB; 25-39 min, 35-99% MPB; 39-49 min, 99% MPB; 49-50, 99-1% MPB. The total run time was 50 min. To assist the desolvation for better sensitivity, methanol was delivered by an external pump and combined with the eluent via a low dead volume mixing tee. Data were acquired using a Thermo Orbitrap Fusion Tribrid Mass Spectrometer under ESI negative ionization mode at a resolution of 240,000. […]

MLNs = assay: Microbiologic analysis of bacterial translocation to mesenteric lymph nodes; format: in vivo; details: allogeneic mice, day 18
Method: Mesenteric lymph nodes (MLNs) were harvested from mice and homogenized in PBS and cultured anaerobically on BHI plates containing yeast extract and 5% sterilized rumen fluid (Fisher Scientific) and Columbia blood agar plates (BD) for 4 days at 37° C. Colony-forming units (CFUs) were counted and adjusted per organ. Bacteria were identified by MALDI Biotyper.

intestinal microbiota [3] = assay: Quantification of fecal bacterial density by 16S rRNA gene qPCR; format: in vivo, mice; details: 0.625 g/L meropenem in drinking water
Method: Genomic DNA was isolated from stool as described above. qPCR was performed as previously described (Yang et al., 2015). In brief, 16S rRNA gene sequences were amplified from total fecal DNA using the primers 926F (5′-[…]-3′) and 1062R (5′-[…]-3′). Real-time PCR was carried out in 96-well optical plates on QuantStudio Flex 6 RT PCR (Thermo Fisher) and KAPA SYBR FAST Master Mix (Roche). The PCR conditions included one initial denaturing step of 10 min at 95° C. and 40 cycles of 95° C. for 20 sec and 60° C. for 1 min. Melting-curve analysis was performed after amplification. To determine bacterial density, a plasmid with a 16S rRNA gene of a murine Blautia isolate was generated in the pCR4 backbone and used as a standard.

[4] = Carbohydrates analysis of mouse feces by IC-MS; format: in vivo; details: allogeneic mice, day 18
Method: To determine the relative abundance of carbohydrates in mouse feces samples, extracts were prepared and analyzed by ultra-HRMS. Fecal pellets were homogenized with a Precellys Tissue Homogenizer. Metabolites were extracted using 1 mL ice-cold 80/20 (v/v) methanol/water. Extracts were centrifuged at 17,000 g for 5 min at 4° C., and supernatants were transferred to clean tubes, followed by evaporation to dryness under nitrogen. Dried extracts were reconstituted in deionized water, and 5 μL was injected for analysis by IC-MS. IC mobile phase A (MPA; weak) was water, and mobile phase B (MPB; strong) was water containing 100 mM KOH. A Thermo Scientific Dionex ICS-5000+ system included a Thermo CarboPac PA-20-Fast column (4 μm particle size, 100×2 mm) with column compartment kept at 30° C. The autosampler tray was chilled to 4° C. The mobile phase flow rate was 200 μL/min, and the gradient elution program was: 0-0.5 min, 1% MPB; 0.5-10 min, 1-5% MPB; 10-15 min, 5-95% MPB; 15-20 min, 95% MPB; 20.5-25, 95-1% MPB. The total run time was 25 min. To assist the desolvation for better sensitivity, methanol was delivered by an external pump and combined with the eluent via a low dead volume mixing tee. Data were acquired using a Thermo Orbitrap Fusion Tribrid Mass Spectrometer under ESI negative ionization mode at a resolution of 240,000. […]

allo-HSCT patients = assay: Retrospective study of 295 allo-HSCT patients: acute GvHD by antibiotic exposure; format: in vivo, human; details: until day 100; antibiotic exposure days −10 to 30
Method: 295 patients with acute myeloid leukemia (AML) or myelodysplastic syndrome (MDS) underwent allogeneic hematopoietic stem cell transplantation (allo-HSCT) with fludarabine plus busulfan as conditioning therapy and tacrolimus and methotrexate as GvHD prophylaxis from 2011 and 2016 at MD Anderson Cancer Center and were analyzed retrospectively. Patients were classified by antibiotic exposures, including those who received neither cefepime nor meropenem, those who received cefepime alone, those who received meropenem alone and those who received both cefepime and meropenem from day −10 to day after allo-HSCT. Acute GvHD was diagnosed by clinical and/or pathological findings, and graded according to standard criteria (Przepiorka et al., 1995).

colonic mucus layer = assay: Colonic mucus thickness by PAS staining; format: in vivo, mice; details: allogeneic mice, day 18
Excerpt: Pathology scores were quantified by a blinded pathologist. […] Sections were imaged using an Aperio AT2.

[5] = tested on: Bacteroides thetaiotaomicron (MDA-JAX BT001); assay: MIC of meropenem with MIC test strips; format: cell-based; details: mouse-derived BT
Method: Mouse-derived BT (MDA-JAX BT001), Enterococcus faecalis (MDA-JAX EF001) and Clostridium disporicum (MDA-JAX CD001), Clostridium saudiense (MDA-JAX CS001), and Lachnospiraceae unclassified (MDA-JAX LS001) were isolated and cultured from mouse stool samples suspended in 1 ml of chilled 20% anaerobic glycerol in a Whitley anaerobic chamber (10% H2, 5% CO2 and 85% N2). Human-derived BT (ATCC 29148) was purchased from ATCC. Bacterial number was quantified using a Nexcelom Cellometer cell counter with SYTO™ BC dye and propidium iodide. For measuring MICs against meropenem, bacteria were cultured on BYE plates including 5% sterilized rumen fluid (Fisher Scientific) with MIC test strips (Liofilchem™ MTS™ Meropenem [MRP] 0.016-256 μg/mL, Fisher Scientific). Bacterial growth experiments were performed in a bacterial liquid media, BYEM10, composed of a hybrid of BHI and M10 supplemented with yeast extract (Table 4). Bacteria were cultured up to 48 hours at a starting concentration of 1×10^6 bacteria/ml in BYEM10 broth (pH 7.2) with and without 5 mg/ml of porcine gastric mucin (M1778, Sigma-Aldrich) with or without 0.5 mg/ml of D-(+)-xylose (X3877), D-(+)-mannose (M8574, Sigma-Aldrich) or D-(+)-glucose (G8270). Optical densities (OD600 nm) of bacterial cultures were measured with a BioTek EPOCH 2 plate reader.

Question: Which results are given for C[C@@H](O)[C@H]1C(=O)N2C(C(=O)O)=C(S[C@@H]3CN[C@H](C(=O)N(C)C)C3)[C@H](C)[C@H]12 [meropenem]?
Answer: change of genus Bacteroides from baseline (intestinal microbiota [1]): significant expansion of bacteria from the genus Bacteroides; fecal levels of SCFAs [2]: reduced fecal levels of SCFAs; bacterial loads in MLNs (MLNs): Higher bacterial loads; reduction in fecal bacterial density (intestinal microbiota [3]): one-log reduction; levels of luminal monosaccharides in the colon [4]: significantly lower concentrations of arabinose and xylose; also recorded: decreased levels of xylose; incidence of acute intestinal GvHD (allo-HSCT patients): increased; colonic mucus layer (colonic mucus layer): significantly thinned colonic mucus layer; also recorded: thinning of the colonic mucus layer; MIC [5]: 4 µg/mL
